Converted amounts (≈) assume the structure as drawn.
Conditions: buffer; pH 7.4; 6.0 h; 150.0 µM

Row | solubility kinetic [µg/mL] | Structure (SMILES)
1 | 18.7 (≈ 54.3 µM) | CN1CCN(C2=Nc3ccccc3Sc3ccc(Cl)cc32)CC1
2 | < 1 | O=C(Nc1ncc(Cc2ccc(C(F)(F)F)cc2)s1)c1ccc(-c2ccccc2)o1
3 | > 62 | CCOC(=O)N1CCN(Cc2nc3c(c(=O)n(C)c(=O)n3C)n2CCC(C)C)CC1
4 | < 1 | COc1cccc(CNc2ccc([S+](=O)([O-])Nc3ccccc3)cc2)c1Cl
5 | < 1 | CCOC(=O)c1ccc(N2C(=O)c3n[nH]c(-c4cccs4)c3C2c2ccc(OCC)cc2)cc1 (centres undefined)
6 | > 66 | CCN(CC)CCOc1ccc2c(=O)c3ccc(Cl)cc3n(CCN(CC)CC)c2c1
7 | < 1 | Cn1c2ccccc2c2c3c(c4c5ccccc5n(CCC#N)c4c21)CNC3=O
8 | < 1 | O=C(Nc1ccc(S(=O)(=O)N2CCN(Cc3ccccc3)CC2)cc1)c1cnccn1
9 | 1.39 (≈ 3.39 µM) | O=C(Nc1ccc(S(=O)(=O)Nc2nccs2)cc1)c1cccc2ccccc12
10 | 52.4 (≈ 111 µM) | CCOc1ccc(CCNC(=O)c2cc3sccc3n2CCN2CCOCC2)cc1OCC
11 | < 1 | Cc1ccc(C)c(CN2C(=O)c3ccccc3S(=O)c3ccc(C(=O)N4CCN(c5ccccc5F)CC4)cc32)c1 (centres undefined)
12 | 15.9 (≈ 54.5 µM) | CCN(CC)C(=O)N1c2ccccc2C=Cc2ccccc21
13 | < 1 | O=C(Nc1ncc(Cc2ccc(C(F)(F)F)cc2)s1)c1cccc(-c2ccccc2)c1
14 | 9.71 (≈ 19.5 µM) | COc1ccc(CCN2C(=O)N(c3ccc(F)cc3)C(=O)C2CC(=O)Nc2ccc(F)c(F)c2)cc1 (centres undefined)
15 | 3.21 (≈ 5.55 µM) | COC(=O)[C@H](Cc1ccc(O[S+](=O)([O-])c2cccc3cnccc23)cc1)N[S+](=O)([O-])c1ccc2cnccc2c1
16 | < 1 | Cn1nnnc1Sc1ncnc2scc(-c3cc4ccccc4o3)c12
17 | 4.51 (≈ 11.5 µM) | O=C(NCc1ccco1)c1nc2nc(-c3cccs3)cc(C(F)(F)F)n2n1
18 | 12 (≈ 23.4 µM) | Cc1cc(C)nc(NC(=S)N2CCN(c3cc(C(F)(F)F)nc4ccc(C(F)(F)F)cc34)CC2)c1
19 | > 57 | NCC(=O)Nc1cncc(-c2nn3c(=O)cc(N4CCNCC4)nc3s2)c1

Row | solubility kinetic [µg/mL] | Structure (SMILES)
20 | 2.32 (≈ 6.09 µM) | Cc1ccnc(NC(=S)N2CCN(c3cc(Cl)cc(Cl)c3)CC2)c1
21 | 9.9 (≈ 30.5 µM) | CCOC(=O)c1cc(-c2ccco2)nc2c1c(C)nn2CCC#N
22 | > 53 | COc1ccccc1-c1nc(NCc2cnc(C)cn2)c2ccccc2n1
23 | > 64 | O=C(C1CCN(c2nc(-c3ccc(Br)cc3)cs2)CC1)N1CCNCC1
24 | 47.5 (≈ 125 µM) | Cc1ccc(NC(=O)c2ccncc2NS(=O)(=O)c2ccc(C)cc2)cc1
25 | > 58 | O=C1Nc2ccccc2/C1=C\c1cc(Br)c(O)c(Br)c1
26 | 43.7 (≈ 118 µM) | c1ccc(Nc2cc3c(cn2)CN(Cc2c[nH]c4ccccc24)CCN3)cc1
27 | 19.2 (≈ 41.9 µM) | Cn1cc(C2=C(c3cn(CCCSC(=N)N)c4ccccc34)C(=O)NC2=O)c2ccccc21
28 | < 1 | O=C(NC(c1ccccc1)c1cc(Cl)c2cccnc2c1O)c1cccnc1 (centres undefined)
29 | < 1 | CCOc1ccc(CCNC(=O)c2cc3ccccc3n2Cc2cc(C)cc(C)n2)cc1OCC
30 | 21.4 (≈ 48.4 µM) | O=C(O)c1ccc(O)c2ncc(N3CCCN(CCc4cccc5ccccc45)CC3)cc12
31 | > 67 | N#Cc1cnc(NS(=O)(=O)c2ccc(NC(=O)Cc3ccc(F)c(Cl)c3)cc2)s1
32 | > 67 | COc1ccc(Cn2c(=O)[nH]c3cc(C(=O)NCCCN4CCCCC4)ccc3c2=O)cc1
33 | < 1 | c1ccc(-c2ccc(CNc3nc(-c4ccccn4)nnc3-c3ccccc3)cc2)cc1
34 | < 1 | O=C1C2=C(Nc3ccccc3SC2c2ccco2)c2ccccc21 (centres undefined)
35 | 31.8 (≈ 125 µM) | O=S(=O)(c1ccc(Cl)cc1)c1ccccn1
36 | < 1 | COCCNCc1ccc(-c2cc3nccc(Oc4ccc(NC(=O)C5(C(=O)Nc6ccc(F)cc6)CC5)cc4F)c3s2)nc1
37 | 20.3 (≈ 56.4 µM) | CC(=O)N[C@H]1CN(C2CCN(c3ccc(F)cc3C)CC2)C[C@@H]1C1CC1

Row | Structure (SMILES) | solubility kinetic [µg/mL]
38 | CC(C)NC(=O)N1C[C@@H]2C[C@H](C1)c1ccc(-c3cccc(C(F)(F)F)c3)c(=O)n1C2 | > 93
39 | Ic1ccccc1CNC1C2CCN(CC2)C1C(c1ccccc1)c1ccccc1 (centres undefined) | > 75

From PubChem BioAssay AID1645848
